# Test results from PMC12615485, “New dengue virus inhibitors targeting NS3-NS5 interaction identified by in silico screening” (Frontiers in Microbiology, 2025).
# Where two headings read alike, the source gives them in different places.
# Tests used:
# [1] = biological target: NS3-NS5 interaction (NS3 f.l. binding to coated 6His-NS5_270–900) (Dengue virus type 2, UniProt P14340); assay: ELISA-based NS3-NS5 interaction assay; set-up: species or system DENV-2; conditions: for IC50: read-out: In vitro activity IC50; for reduction of NS3-NS5 interaction: at the tested concentrations; for inhibition at 100 µM: fixed concentration of 100 μM, compared with DMSO control
# Protocol: Nunc Maxisorp microplates (Thermo Fisher Scientific) were coated with 400 ng/well of 6His-NS5_270–900, or GST protein as a control, in PBS for 3 h at 37 °C and then blocked with 5% (wt/v) bovine serum albumin (BSA, Merck Life Science) in PBS overnight at 4 °C. Blocked wells were incubated at room temperature (RT) for 2 h with increasing amounts of NS3 f.l. or GST–NS3_172–618. 6His-NS5_270–900-coated plates were also incubated with increasing concentration of GST, as a control. After washing with PBS containing 0.3% Tween 20 (Fisher Scientific, Waltham, MA, United States), the NS3-NS5 interaction was detected by incubating the plates with the anti-NS3 monoclonal antibody (GT2811 clone, Genetex, Irvine, CA, United States) diluted 1:6,000 in PBS + 2% (v/v) FBS (Thermo Fisher Scientific) for 1 h at RT. The unbound primary antibody was removed by further washes with PBS + 0.3% Tween 20 and the secondary goat anti-mouse HRP-conjugated antibody (GenScript Biotech) at a dilution of 1:8,000 in PBS + 2% FBS was then added. After incubation for 1 h at RT and following washes, the colorimetric substrate 3,3′,5,5′-tetramethylbenzidine (TMB, SeraCare Life Sciences, Milford, MA, United States) was added to each well and absorbance was read at 450 nm by an ELISA plate reader (Tecan Infinite 200 PRO, Mannedorf, Switzerland).
# To test the inhibitory effect of compounds on NS3-NS5 interaction, 6His-NS5_270–900-coated wells were incubated with a fixed amount of NS3 f.l. (200 ng) along with increasing concentrations of test compounds or DMSO as a control. To exclude non-specific inhibition of compounds due to colloidal aggregation, the inhibitory activities of compounds were tested in the presence or the absence of 0.002% Triton X-100 (Fisher Scientific), a condition which reverses and prevents the colloidal formation of organic molecules ([McGovern et al., 2003]). All the compound concentrations were tested at least in duplicate.
# [2] = tested on: Vero cells; assay: MTT cytotoxicity assay; conditions: read-out: Cytotoxicity CC50; best analogues of hit 3, in-house synthesized hit 3 as control; MTT in Vero cells at 72 h
# [3] = tested on: DENV-2 NGC strain; assay: Plaque reduction assay (PRA) in Vero cells; assay type: cell-based; conditions: for EC50: PRA in Vero cells, read-out: Antiviral activity EC50; for SI (selectivity index): ratio between CC50 and EC50
# [4] = tested on: Vero cells
# [5] = MTT cytotoxicity assay; conditions: African green monkey, Vero cells
# [6] = analogues of hit 3, in-house synthesized hit 3 as control, 50% inhibition of NS3-NS5 binding in ELISA
# [7] = best analogues of hit 3, in-house synthesized hit 3 as control, NGC strain
# [8] = selected hits, concentration that decreased the NS3-NS5 binding by 50% in ELISA
# [9] = Dengue virus, DENV2, Vero, selected hits, 50% inhibition of viral plaque formation, DENV-2
smiles,measurement,setting,value
O=C(NNC(=S)Nc1ccc(Cl)cc1Cl)c1ccccc1O [Compound 51],IC50,[1]; [6],97.2 ± 24.3 µM
COc1ccc(C(=O)NNC(=S)Nc2ccccc2)cc1 [Compound 52],IC50,[1]; [6],167 ± 29 µM
O=C(NNC(=S)Nc1ccccc1)c1ccccc1O [Compound 53],IC50,[1]; [6],82.7 ± 21.5 µM
CCOC(=O)c1ccc(NC(=S)NNC(=O)c2ccccc2O)cc1 [Compound 54],IC50,[1]; [6],31 ± 18.3 µM
Cc1ccc(NC(=S)NNC(=O)c2ccc(C(F)(F)F)cc2)cc1 [Compound 55],IC50,[1]; [6],118 ± 23 µM
COc1ccccc1C(=O)NNC(=S)Nc1ccc(C)cc1 [Compound 56],IC50,[1]; [6],21.2 ± 3.4 µM
Cc1ccc(NC(=S)NNC(=O)c2ccccc2)cc1 [Compound 57],IC50,[1]; [6],55.6 ± 22.7 µM
Cc1ccc(NC(=S)NNC(=O)c2ccccc2F)cc1 [Compound 58],IC50,[1]; [6],21.3 ± 7.9 µM
Cc1ccc(NC(=S)NNC(=O)c2ccccc2C)cc1 [Compound 59],IC50,[1]; [6],29 ± 6.9 µM
Cc1ccc(NC(=S)NNC(=O)c2ccc(C)cc2)cc1 [Compound 60],IC50,[1]; [6],149 ± 21 µM
Cc1ccc(NC(=S)NNC(=O)c2cccc(O)c2)cc1 [Compound 61],IC50,[1]; [6],> 200 µM
same,reduction of NS3-NS5 interaction,[1],< 50%
Cc1ccc(NC(=S)NNC(=O)c2ccc(O)cc2)cc1 [Compound 62],IC50,[1]; [6],> 200 µM
same,reduction of NS3-NS5 interaction,[1],< 50%
Cc1ccc(NC(=S)NNC(=O)c2ccc(O)cc2O)cc1 [Compound 63],IC50,[1]; [6],172 ± 31 µM
Cc1ccc(NC(=S)NNC(=O)c2ccccn2)cc1 [Compound 64],CC50,[2],39.6 ± 10.2 µM
same,EC50,[3]; [7],2.1 ± 1.6 µM
Cc1ccc(NC(=S)NNC(=O)c2cccs2)cc1 [Compound 65],IC50,[1]; [6],64.9 ± 19.5 µM
CN(C)c1ccc(NC(=S)NNC(=O)c2ccccc2O)cc1 [Compound 66],IC50,[1]; [6],12.5 ± 4.1 µM
O=C(NNC(=S)Nc1ccc([N+](=O)[O-])cc1)c1ccccc1O [Compound 67],IC50,[1]; [6],> 200 µM
same,reduction of NS3-NS5 interaction,[1],< 50%
Cc1ccc(NC(=S)NNC(=O)c2ccco2)cc1 [Compound 68],IC50,[1]; [6],20.1 ± 7.5 µM
CN(C)c1ccc(NC(=S)NNC(=O)c2ccccn2)cc1 [Compound 69],fold lower IC50 than hit 3,[1]; IC50 of 1.0 μM versus 15.6 μM,15 fold
same,CC50,[4],72 ± 17.2 µM
same,EC50,[3]; [7],12.4 ± 5.8 µM
CN(C)c1ccc(NC(=S)NNC(=O)c2cccs2)cc1 [Compound 70],IC50,[1]; [6],25.3 ± 5.4 µM
CN(C)c1ccc(NC(=S)NNC(=O)c2ccco2)cc1 [Compound 71],IC50,[1]; [6],11.6 ± 2.6 µM
Cc1ccc(NC(=S)NNC(=O)c2ccc(C(C)(C)C)cc2)cc1 [Compound 72],CC50,[4],211 ± 20 µM
same,EC50,[3]; [7],2.8 ± 1.9 µM
Cc1ccc(NC(=S)NNC(=O)c2ccc(C(F)(F)F)cc2C(F)(F)F)cc1 [Compound 73],IC50,[1]; [6],> 200 µM
same,reduction of NS3-NS5 interaction,[1],< 50%
COc1ccc(NC(=S)NNC(=O)c2ccccc2O)cc1 [Compound 74],IC50,[1]; [6],> 200 µM
same,reduction of NS3-NS5 interaction,[1],< 50%
N#Cc1ccc(NC(=S)NNC(=O)c2ccccc2O)cc1 [Compound 75],IC50,[1]; [6],40.3 ± 8.3 µM
CC(C)(C)c1ccc(NC(=S)NNC(=O)c2ccccc2O)cc1 [Compound 76],IC50,[1]; [6],6.3 ± 2.2 µM
Cc1ccc(NC(=S)NNC(=O)c2ccc(C#N)cc2)cc1 [Compound 77],IC50,[1]; [6],> 200 µM
same,reduction of NS3-NS5 interaction,[1],< 50%
Cc1ccc(Nc2nc(-c3ccccc3O)cs2)cc1 [Compound 78],IC50,[1]; [6],> 200 µM
same,reduction of NS3-NS5 interaction,[1],< 50%
Cc1ccc(NC(=O)NNC(=O)c2ccccc2O)cc1 [Compound 79],IC50,[1]; [6],13.9 ± 6.5 µM
O=C(NCc1nc2ccccc2[nH]1)c1ccc2[nH]nnc2c1 [Hit 1],inhibition at 100 µM,[1],≥ 50%
same,IC50,[1]; [8],85.9 ± 14.5 µM
same,CC50 at 72 h,[5],> 250 µM
same,EC50,[3]; [9],> 100 µM
same,SI (selectivity index),[3]; selected hits,>3
Cc1ccc(C(=O)Nc2cc(-c3cccc(F)c3F)n[nH]2)c(=O)[nH]1 [Hit 4],inhibition at 100 µM,[1],≥ 50%
same,IC50,[1]; [8],18.7 ± 2.1 µM
same,CC50 at 72 h,[5],12.7 ± 4 µM
same,EC50,[3]; [9],> 10 µM
same,SI (selectivity index),[3]; selected hits,1
Cc1nc(NC(=O)c2ccc(C(N)=O)cc2)sc1SCC#N [Hit 6],inhibition at 100 µM,[1],≥ 50%
same,IC50,[1]; [8],51.4 ± 10.3 µM
same,CC50 at 72 h,[5],> 250 µM
same,EC50,[3]; [9],98.8 ± 10.4 µM
same,SI (selectivity index),[3]; selected hits,>3
N=c1c2cnn(-c3ccccc3)c2ncn1NC(=S)Nc1ccccc1 [Hit 15],inhibition at 100 µM,[1],≥ 50%
same,IC50,[1]; [8],123 ± 16 µM
same,CC50 at 72 h,[5],> 250 µM
same,EC50,[3]; [9],> 100 µM
same,SI (selectivity index),[3]; selected hits,>3
NC(=O)COc1ccc(CNC(=O)Nc2ccc(Cl)cc2)cc1 [Hit 29],inhibition at 100 µM,[1],≥ 50%
same,IC50,[1]; [8],142 ± 26 µM
same,CC50 at 72 h,[5],35.7 ± 4.9 µM
same,EC50,[3]; [9],34.3 ± 9.4 µM
same,SI (selectivity index),[3]; selected hits,1
O=C(NCc1ncc(-c2ccccc2)[nH]1)Nc1ccncc1F [Hit 30],inhibition at 100 µM,[1],≥ 50%
same,IC50,[1]; [8],44.6 ± 8.1 µM
same,CC50 at 72 h,[5],> 250 µM
same,EC50,[3]; [9],24.6 ± 5.9 µM
O=C(CCc1ccccn1)Nc1ccc2[nH]nnc2c1 [Hit 44],inhibition at 100 µM,[1],≥ 50%
same,IC50,[1]; [8],78.5 ± 16.4 µM
same,CC50 at 72 h,[5],> 100 µM
same,EC50,[3]; [9],97.4 ± 12.6 µM
same,SI (selectivity index),[3]; selected hits,>1
N#Cc1nc2c(-c3nc4ccccc4[nH]3)c(N)n(Cc3ccco3)c2nc1C#N [Hit 47],inhibition at 100 µM,[1],≥ 50%
same,IC50,[1]; [8],16.9 ± 2.5 µM
same,CC50 at 72 h,[5],> 250 µM
same,EC50,[3]; [9],53.5 ± 6.9 µM
same,SI (selectivity index),[3]; selected hits,>5
N#Cc1cn[nH]c1NCc1ccc(OCc2ccccc2)cc1O [Hit 50],inhibition at 100 µM,[1],≥ 50%
same,IC50,[1]; [8],32 ± 6.7 µM
same,CC50 at 72 h,[5],> 250 µM
same,EC50,[3]; [9],13.4 ± 1.8 µM
same,SI (selectivity index),[3]; selected hits,>19
"CC(C)C[C@H](NC(=O)[C@H](C)NC(=O)[C@H](CC(C)C)NC(=O)[C@@H](NC(=O)[C@H](CCC(N)=O)NC(=O)[C@@H](NC(=O)[C@H](CCC(=O)O)NC(=O)[C@H](CCC(=O)O)NC(=O)CNC(=O)[C@H](CCC(=O)O)NC(=O)[C@H](CCCCN)NC(=O)[C@H](Cc1c[nH]c2ccccc12)NC(=O)[C@H](CCC(=O)O)NC(=O)CNC(=O)[C@@H](N)CCC(=O)O)C(C)C)C(C)C)C(=O)O [NS3_86–100 peptide, reference compound]",inhibitory effect on NS3-NS5 interaction,[1]; up to 480 μM,no inhibitory effect
